Assay results taken from PMC8623647 (Pharmaceuticals, 2021).
Several values for one entry are separate records, joined by “and”; a condition that tells them apart may be missing. Identical values can stand only once.

Key:
[1] = BBB permeation by parallel artificial membrane permeability assay (PAMPA); assay type: in vitro ADME; conditions: for Prediction (BBB permeation): PAMPA-BBB class from Pe; for Papp: PAMPA-BBB, read-out: Experimental Pe
From the text: The CNS bioavailability of the lead candidates was further ascertained by PAMPA method [31].

MAO-B [2] = target: T1, MAO-B (Homo sapiens, UniProt P27338); experiment: MAO-B enzyme inhibition (benzylamine substrate, 250 nm); conditions: for SI (hMAO-B selectivity index): IC50(hMAO-A) divided by IC50(hMAO-B); for Times more potent than pargyline (MAO-B) / Times more potent than the reference drug lazabemide (MAO-B): ratio of MAO-B IC50 values; for remaining activity at 10 µM: read-out: Residual Activity at 10 µM (%) MAO-B
T1 sequence (P27338 1-520): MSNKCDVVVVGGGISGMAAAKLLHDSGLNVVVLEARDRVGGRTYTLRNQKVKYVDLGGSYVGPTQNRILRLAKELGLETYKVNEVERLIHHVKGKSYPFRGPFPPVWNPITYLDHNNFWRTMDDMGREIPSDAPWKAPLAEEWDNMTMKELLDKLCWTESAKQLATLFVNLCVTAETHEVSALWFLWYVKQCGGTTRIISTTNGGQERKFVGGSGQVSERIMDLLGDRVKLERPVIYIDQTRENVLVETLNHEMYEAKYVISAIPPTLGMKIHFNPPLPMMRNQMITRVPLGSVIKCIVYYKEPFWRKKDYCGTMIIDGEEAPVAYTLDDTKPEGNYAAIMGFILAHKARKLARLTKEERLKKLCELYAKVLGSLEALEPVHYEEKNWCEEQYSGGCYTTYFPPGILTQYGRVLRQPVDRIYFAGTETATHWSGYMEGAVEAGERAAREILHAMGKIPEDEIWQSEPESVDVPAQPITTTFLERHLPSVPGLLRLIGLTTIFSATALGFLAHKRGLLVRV
Protocol: (§1) MAO activity assays were performed using recombinant human MAO-A or MAO-B.
(§2) IC50 values were determined by measuring residual enzyme activities.

recombinant human MAO-A = target: T2, recombinant human MAO-A (Homo sapiens, UniProt P21397); experiment: MAO-A enzyme inhibition (kynuramine substrate, 316 nm); conditions: for remaining activity at 10 µM: read-out: Residual Activity at 10 µM (%) MAO-A
T2 sequence (P21397 1-527): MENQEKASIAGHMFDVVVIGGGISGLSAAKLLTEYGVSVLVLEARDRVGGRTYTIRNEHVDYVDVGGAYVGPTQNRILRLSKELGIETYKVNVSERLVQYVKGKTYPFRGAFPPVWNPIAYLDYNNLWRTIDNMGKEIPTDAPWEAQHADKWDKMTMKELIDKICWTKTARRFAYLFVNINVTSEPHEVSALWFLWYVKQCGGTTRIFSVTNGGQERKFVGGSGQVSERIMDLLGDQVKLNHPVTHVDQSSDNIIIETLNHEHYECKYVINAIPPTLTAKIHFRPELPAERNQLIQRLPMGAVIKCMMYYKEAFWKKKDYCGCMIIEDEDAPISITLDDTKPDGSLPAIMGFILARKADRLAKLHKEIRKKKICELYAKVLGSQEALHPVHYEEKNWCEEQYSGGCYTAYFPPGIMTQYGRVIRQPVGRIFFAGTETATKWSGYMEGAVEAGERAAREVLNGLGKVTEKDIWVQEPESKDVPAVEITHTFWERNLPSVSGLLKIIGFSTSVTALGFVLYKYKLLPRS
Protocol: as §1, §2

MAO-B [3] = test system: MAO-B; set-up: method as in PMID 28577983; conditions: methoxylated chalcones previously reported ref 30; cited from earlier work
MAO-B [4] = target: T1, MAO-B; experiment: Reversibility of MAO-B inhibition by dialysis; assay type: biochemical; conditions: test compounds […], lazabemide 0.20 µM, pargyline 0.30 µM
Protocol: The reversibilities of MAO-B inhibitions by TM1 and TM8 were assessed by dialysis. […] Reversibility patterns were determined by comparing the activities of dialyzed (AD) and undialyzed (AU) samples.

Row | Structure (SMILES) | Papp [1] [×10⁻⁶ cm/s] | IC50 (MAO-B [2]) [nM] | SI (hMAO-B selectivity index) (MAO-B [2]) | Times more potent than pargyline (MAO-B) (MAO-B [2]) | Times more potent than the reference drug lazabemide (MAO-B) (MAO-B [2]) [times] | remaining activity at 10 µM (MAO-B [2]) [%] | IC50 (recombinant human MAO-A) [nM] | remaining activity at 10 µM (recombinant human MAO-A) [%] | MAO-B activity of dialyzed sample (AD) (MAO-B [4]; after dialysis) [%] | MAO-B activity of undialyzed sample (AU) (MAO-B [4]; preincubated 30 min) [%] | Prediction (BBB permeation) [1] | SI for MAO-B (MAO-B [3]) | Ki (MAO-B [3]) [nM]
1 | CCn1cc(C(=O)O)c(=O)c2cc(F)c(N3CCNC(C)C3)c(F)c21 (stereo not drawn) [Lomefloxacin, reference compound] | 1.22 ± 0.02 | – | – | – | – | – | – | – | – | – | CNS− (CNS− (low BBB permeation predicted): Pe (10^−6 cm·s^−1) < 2.00) | – | –
2 | CC(=O)[C@H]1CC[C@H]2[C@@H]3CCC4=CC(=O)CC[C@]4(C)[C@H]3CC[C@]12C [Progesterone, reference compound] | – | – | – | – | – | – | – | – | – | – | CNS+ (CNS+ (high BBB permeation predicted): Pe (10^−6 cm·s^−1) > 4.00) | – | –
3 | COc1ccc(C(=O)/C=C/c2ccc(Cl)cc2)cc1 [Compound C8] | – | – | – | – | – | – | – | – | – | – | – | 3.89 | –
4 | NCCNC(=O)c1ccc(Cl)cn1 [Lazabemide, reference compound] | – | – | – | – | – | – | – | – | 74.9 | 16.6 | – | – | –
5 | COc1ccc(C(=O)/C=C/c2ccccc2)cc1 [Compound C1] | – | – | – | – | – | – | – | – | – | – | – | 5.07 | 700 ± 50

Second part, led by results:

Row | Papp [1] [×10⁻⁶ cm/s] | IC50 (MAO-B [2]) [nM] | SI (hMAO-B selectivity index) (MAO-B [2]) | Times more potent than pargyline (MAO-B) (MAO-B [2]) | Times more potent than the reference drug lazabemide (MAO-B) (MAO-B [2]) [times] | remaining activity at 10 µM (MAO-B [2]) [%] | IC50 (recombinant human MAO-A) [nM] | remaining activity at 10 µM (recombinant human MAO-A) [%] | MAO-B activity of dialyzed sample (AD) (MAO-B [4]; after dialysis) [%] | MAO-B activity of undialyzed sample (AU) (MAO-B [4]; preincubated 30 min) [%] | Structure (SMILES) | Prediction (BBB permeation) [1] | SI for MAO-B (MAO-B [3]) | Ki (MAO-B [3]) [nM]
6 | 13.3 ± 0.8 | 21 ± 3 | 354.8 | 1.3 times | 3.0 | -5.7 ± 5.3 | 7450 ± 250 | 48.3 ± 2.4 | – | – | CSc1ccc(C(=O)/C=C/c2ccc(O)cc2)cc1 [TM2] | CNS+ (CNS+ (high BBB permeation predicted): Pe (10^−6 cm·s^−1) > 4.00) | – | –
7 | 15.5 ± 0.71 | 23 ± 1 | 1304 and 1304.3 | almost as potent as pargyline | 2.7 | 6 ± 1.9 | 30000 ± 3020 | 66.1 ± 2.6 | – | – | CSc1ccc(C(=O)/C=C/c2ccc([N+](=O)[O-])cc2)cc1 [TM7] | CNS+ (CNS+ (high BBB permeation predicted): Pe (10^−6 cm·s^−1) > 4.00) | – | –
8 | – | 58 ± 1 | 206.9 | – | 1.1 | 14.7 ± 2.8 | 12000 ± 990 | 71.6 ± 3.8 | – | – | CSc1ccc(C(=O)/C=C/c2ccc(C)cc2)cc1 [TM4] | – | – | –
9 | – | 88 ± 6 | 381.8 | – | – | 7.5 ± 2.1 | 33600 ± 2560 | 74.7 | – | – | CSc1ccc(C(=O)/C=C/c2ccc(Br)cc2)cc1 [TM9] | – | – | –
10 | – | 130 ± 5 | 51.6 | – | – | -9.5 | 6710 ± 750 | 49.4 ± 8.7 | – | – | CCc1ccc(/C=C/C(=O)c2ccc(SC)cc2)cc1 [TM6] | – | – | –
11 | 15.2 ± 0.44 | 26 ± 4 | 526.9 | almost as potent as pargyline | 2.4 | -0.4 ± 2.7 | 13700 ± 1220 | 57.9 ± 6 | – | – | CSc1ccc(C(=O)/C=C/c2ccc(F)cc2)cc1 [TM10] | CNS+ (CNS+ (high BBB permeation predicted): Pe (10^−6 cm·s^−1) > 4.00) | – | –
12 | – | 81 ± 32 | 311.1 | – | – | 7.4 ± 1.2 | 25200 ± 140 | 79.5 ± 0.7 | – | – | CSc1ccc(C(=O)/C=C/c2ccc(C(F)(F)F)cc2)cc1 [TM11] | – | – | –
13 | – | 120 ± 11 | 49.3 | – | – | 1.6 ± 1.1 | 5910 ± 870 | 47.9 ± 3.7 | – | – | CSc1ccc(C(=O)/C=C/c2ccc(N(C)C)cc2)cc1 [TM5] | – | – | –
14 | – | 88 ± 11 | 100.2 | – | – | 6.9 | 8820 ± 90 | 44.6 ± 1.9 | – | – | COc1ccc(/C=C/C(=O)c2ccc(SC)cc2)cc1 [TM3] | – | – | –
